Test results as given in PubChem BioAssay AID2060491 (Molecular Pharmacology Branch, DTP, NCI, 2025).

Tested on: 857933-349-R-J2-PDC complex spheroids, viability
Experiment: Anticancer human tumor 857933-349-R-J2-PDC patient-derived colon adenocarcinoma cell line growth inhibition [GQUAD]
Settings: for IC50: curve of first compound; for viability, T/C: stronger effect = lower value; active means viability on the fitted dose curve at most 10% of control; inactive means the rest
Excerpt: DNA G-quadruplex Stabilizer Agents in Combinations in Complex Spheroids
A high-throughput screen of multi-cell type tumor spheroids was designed to identify active combinations of DNA G-quadruplex stabilizer agents and targeted small molecules. Complex spheroids include a stromal component modeled by human endothelial cells (HUVEC) and fibroblasts modeled by human mesenchymal stem cells (MSCs). The concentration ranges selected for each drug and investigational agent were based upon clinically achievable concentrations if the clinical Cmax of the agent was known.
Compounds. The drugs and investigational agents: pidnarulex (CX-5461; NSC782164), APTO-253 (NSC789042), BRACO-19 (NSC847499), peposertib (NSC802822), ceralasertib (NSC780249), elimusertib (NSC800525), camonsertib (NSC841442), AZD-1390 (NSC803789), olaparib (NSC753686), talazoparib (NSC767125), ART-558 (NSC835418), sotorasib (NSC818433), MRTX-1133 (NSC836407), SN-38 (NSC673596), topotecan (NSC609699), etoposide (NSC141540), doxorubicin (NSC123127), gemcitabine (NSC613327), 5-fluorouracil (NSC19893), paclitaxel (NSC125973), vemurafenib (NSC761431), panobinostat (NSC761190), R-306465 (JNJ-16241199; NSC773264), adavosertib (NSC754352), TP-3654 (NSC805149), carboplatin (NSC241240), KSQ-4279 (NSC840948), and staurosporine (NSC755774) were obtained from the National Cancer Institute (NCI) Developmental Therapeutics Program Chemical Repository (34). The FDA-approved anticancer drug set is available from the NCI Developmental Therapeutics Program. […] The stock solutions were prepared in dimethyl sulfoxide (DMSO, Sigma-Aldrich, St. Louis, MO, cat. D2650) at 800-fold the tested concentration and stored at -70 degrees C prior to their use. All drugs and investigational agents were tested over a range starting from a high concentration at or near the clinical Cmax and decreasing in half-log increments. If the clinical Cmax for an agent had not been determined, the highest concentration tested was 10 microM.
2.3 Cell Culture. All cells were maintained in an incubator at 37 degrees C and 5% CO2 with 95% humidity. The PDC lines were cultured according to standard operating procedures established by the NCI PDMR. All PDCs were thawed and cultured in Matrigel-coated flasks prepared with a working solution of 1X Ham's F-12 nutrient mix, without supplementation (Invitrogen, cat. 11765054), 100 U/mL penicillin-streptomycin (Invitrogen, cat. 15140122), and 2.5% Matrigel (Corning Inc., cat. 354248) for the first three passages. The 857933-349-R-J2-PDC line was cultured in 6C/Colon 1B media, which includes advanced DMEM/F-12 (Thermo Fisher Scientific, cat. 12634028), 10 mM HEPES (Thermo Fisher Scientific, cat. 15630080), 1X GlutaMAX supplement (Thermo Fisher Scientific, cat. 35050061), 0.1 mg/mL primocin (InvivoGen, cat. ant-pm-2), 10% defined fetal bovine serum, heat inactivated (HyClone Laboratories Inc., cat. SH30070.03HI), 50% L-WRN conditioned media (ATCC, cat. CRL-3276), 1.25 mM N-Acetyl-L-cysteine (Sigma-Aldrich, cat. A9165), 10 mM nicotinamide (Sigma-Aldrich, cat. N0636), 1X B-27 supplement (Thermo Fisher Scientific, cat. 17504044), 1X N-2 supplement (Thermo Fisher Scientific, cat. 17502048), 10 microM Y-27632 dihydrochloride (Tocris Bioscience, cat. 1254), and 50 ng/mL human EGF recombinant protein (Thermo Fisher Scientific, cat. PHG0311). The 485176-168-R4-J1-PDC line was cultured in Panc media, which includes all 6C/Colon 1B media components plus 100 ng/mL human FGF-10 (Thermo Fisher Scientific, cat. 100-26), 500 nM SB-431542 (Selleckchem, cat. S1067), and gastrin (Tocris, cat. 3006).
[…]

[1] = second compound 0.0316 µM, first compound 0.0316 µM
[2] = second compound 0.0316 µM, first compound 0.1 µM
[3] = second compound 0.0316 µM, first compound 0.316 µM
[4] = second compound 0.0316 µM, first compound 1 µM
[5] = second compound 0.0316 µM, first compound 3.16 µM
[6] = second compound 0.0316 µM, first compound 10 µM
[7] = second compound 0.1 µM, first compound 0.0316 µM
[8] = second compound 0.1 µM, first compound 0.1 µM
[9] = second compound 0.1 µM, first compound 0.316 µM
[10] = second compound 0.1 µM, first compound 1 µM
[11] = second compound 0.1 µM, first compound 3.16 µM
[12] = second compound 0.1 µM, first compound 10 µM
[13] = second compound 0.316 µM, first compound 0.0316 µM
[14] = second compound 0.316 µM, first compound 0.1 µM
[15] = second compound 0.316 µM, first compound 0.316 µM
[16] = second compound 0.316 µM, first compound 1 µM
[17] = second compound 0.316 µM, first compound 3.16 µM
[18] = second compound 0.316 µM, first compound 10 µM
[19] = second compound 1 µM, first compound 0.0316 µM
[20] = second compound 1 µM, first compound 0.1 µM
[21] = second compound 1 µM, first compound 0.316 µM
[22] = second compound 1 µM, first compound 1 µM
[23] = second compound 1 µM, first compound 3.16 µM
[24] = second compound 1 µM, first compound 10 µM
[25] = second compound 3.16 µM, first compound 0.0316 µM
[26] = second compound 3.16 µM, first compound 0.1 µM
[27] = second compound 3.16 µM, first compound 0.316 µM
[28] = second compound 3.16 µM, first compound 1 µM
[29] = second compound 3.16 µM, first compound 3.16 µM
[30] = second compound 3.16 µM, first compound 10 µM
[31] = second compound 10 µM, first compound 0.0316 µM
[32] = second compound 10 µM, first compound 0.1 µM
[33] = second compound 10 µM, first compound 0.316 µM
[34] = second compound 10 µM, first compound 1 µM
[35] = second compound 10 µM, first compound 3.16 µM
[36] = second compound 10 µM, first compound 10 µM
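Further: spheroids exposed to compounds for one week before readout.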
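Wherever viability, T/C is given: percent viability relative to vehicle DMSO wells taken as 100%.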

C#Cc1c(F)ccc2cc(O)cc(-c3ncc4c(N5CC6CCC(C5)N6)nc(OCC56CCCN5CC(F)C6)nc4c3F)c12 (stereo not drawn) + Cc1[nH]c2ccc(F)cc2c1-c1nc2c3cccnc3c3ncccc3c2[nH]1
inactive: viability, T/C [1] 109% | viability, T/C [2] 96.3% | viability, T/C [3] 91.9% | viability, T/C [4] 80.7% | viability, T/C [5] 74.3% | viability, T/C [6] 63.9% | viability, T/C [7] 104% | viability, T/C [8] 98.5% | viability, T/C [9] 89.2% | viability, T/C [10] 85.2% | viability, T/C [11] 71.3% | viability, T/C [12] 66.7% | viability, T/C [13] 101% | viability, T/C [14] 90.8% | viability, T/C [15] 86.3% | viability, T/C [16] 78.4% | viability, T/C [17] 81.7% | viability, T/C [18] 70.1% | viability, T/C [19] 98.2% | viability, T/C [20] 87.5% | viability, T/C [21] 93.3% | viability, T/C [22] 78.8% | viability, T/C [23] 86.7% | viability, T/C [24] 75.7% | viability, T/C [25] 94.3% | viability, T/C [26] 83.2% | viability, T/C [27] 81.6% | viability, T/C [28] 73.3% | viability, T/C [29] 80.8% | viability, T/C [30] 74.3% | viability, T/C [31] 90.4% | viability, T/C [32] 93.7% | viability, T/C [33] 87% | viability, T/C [34] 79.9% | viability, T/C [35] 78.8% | viability, T/C [36] 66.8%
> 10000 nM: IC50 (second compound 0.0316 µM) | IC50 (second compound 0.1 µM) | IC50 (second compound 0.316 µM) | IC50 (second compound 1 µM) | IC50 (second compound 3.16 µM) | IC50 (second compound 10 µM)

CC(=O)O[C@H]1C(=O)[C@@]2(C)[C@H]([C@H](OC(=O)c3ccccc3)[C@]3(O)C[C@H](OC(=O)[C@H](O)[C@@H](NC(=O)c4ccccc4)c4ccccc4)C(C)=C1C3(C)C)[C@]1(OC(C)=O)CO[C@@H]1C[C@@H]2O + Cc1[nH]c2ccc(F)cc2c1-c1nc2c3cccnc3c3ncccc3c2[nH]1
32.9 nM: IC50 (second compound 1 µM)
39.5 nM: IC50 (second compound 3.16 µM)
inactive: viability, T/C [1] 43.9% | viability, T/C [2] 16.9% | viability, T/C [3] 11.6% | viability, T/C [4] 11.4% | viability, T/C [5] 11.1% | viability, T/C [6] 12.6% | viability, T/C [7] 44.9% | viability, T/C [8] 17.1% | viability, T/C [9] 11.4% | viability, T/C [10] 11.8% | viability, T/C [11] 12.7% | viability, T/C [12] 13.1% | viability, T/C [13] 59.8% | viability, T/C [14] 17.8% | viability, T/C [15] 10.8% | viability, T/C [16] 11% | viability, T/C [17] 12.8% | viability, T/C [18] 13.5% | viability, T/C [19] 51.2% | viability, T/C [20] 17.7% | viability, T/C [21] 11.8% | viability, T/C [22] 12.3% | viability, T/C [23] 14.2% | viability, T/C [24] 12.4% | viability, T/C [25] 58% | viability, T/C [26] 16.6% | viability, T/C [27] 14.5% | viability, T/C [28] 12.8% | viability, T/C [29] 15% | viability, T/C [30] 16.4% | viability, T/C [31] 43.2% | viability, T/C [32] 17.1% | viability, T/C [33] 14% | viability, T/C [34] 13.3% | viability, T/C [35] 16.7% | viability, T/C [36] 16.2%
41.3 nM: IC50 (second compound 0.316 µM)
< 31.6 nM: IC50 (second compound 0.0316 µM) | IC50 (second compound 0.1 µM) | IC50 (second compound 10 µM)

CC(C)n1c(=O)n(C)c2cnc3cc(F)c(-c4ccc(OCCCN5CCCCC5)nc4)cc3c21 + Cc1cnc(CNC(=O)c2c(=O)c3ccc(N4CCCN(C)CC4)nc3n3c2sc2ccccc23)cn1
active: viability, T/C [19] 9.65% | viability, T/C [20] 10.9% | viability, T/C [21] 8.38% | viability, T/C [22] 8.38% | viability, T/C [23] 11% | viability, T/C [24] 6.11% | viability, T/C [25] 3.19% | viability, T/C [26] 3.85% | viability, T/C [27] 4.08% | viability, T/C [28] 3.05% | viability, T/C [29] 4.81% | viability, T/C [30] 1.31% | viability, T/C [31] 3.24% | viability, T/C [32] 2.19% | viability, T/C [33] 2.95% | viability, T/C [34] 1.88% | viability, T/C [35] 2.22% | viability, T/C [36] 0.46%
> 10000 nM: IC50 (second compound 0.0316 µM)
< 31.6 nM: IC50 (second compound 0.316 µM) | IC50 (second compound 1 µM) | IC50 (second compound 3.16 µM) | IC50 (second compound 10 µM)
inactive: viability, T/C [1] 76.9% | viability, T/C [2] 60.9% | viability, T/C [3] 73.1% | viability, T/C [4] 69.2% | viability, T/C [5] 73.3% | viability, T/C [6] 54.3% | viability, T/C [7] 43.9% | viability, T/C [8] 45.5% | viability, T/C [9] 52.8% | viability, T/C [10] 52% | viability, T/C [11] 57.7% | viability, T/C [12] 31.4% | viability, T/C [13] 32.7% | viability, T/C [14] 39.1% | viability, T/C [15] 33% | viability, T/C [16] 35.2% | viability, T/C [17] 39.1% | viability, T/C [18] 17.5%
3220 nM: IC50 (second compound 0.1 µM)

COc1ccc([C@@H](O)c2cc(-c3ncnc4cc(N5CCOCC5)ccc34)c(F)cc2Cl)nn1 + Cc1cnc(CNC(=O)c2c(=O)c3ccc(N4CCCN(C)CC4)nc3n3c2sc2ccccc23)cn1
inactive: viability, T/C [1] 95.5% | viability, T/C [2] 81.5% | viability, T/C [3] 58% | viability, T/C [4] 47.1% | viability, T/C [5] 43% | viability, T/C [6] 38% | viability, T/C [7] 59.5% | viability, T/C [8] 59.5% | viability, T/C [9] 40.9% | viability, T/C [10] 25.9% | viability, T/C [11] 23.2% | viability, T/C [12] 26.5% | viability, T/C [13] 26.5% | viability, T/C [14] 26.6% | viability, T/C [15] 14.2%
active: viability, T/C [16] 3.09% | viability, T/C [17] 2.64% | viability, T/C [18] 2.37% | viability, T/C [19] 4.74% | viability, T/C [20] 3.32% | viability, T/C [21] 3.45% | viability, T/C [22] 2.29% | viability, T/C [23] 1.33% | viability, T/C [24] 1.08% | viability, T/C [25] 2.27% | viability, T/C [26] 2.54% | viability, T/C [27] 2.01% | viability, T/C [28] 1.72% | viability, T/C [29] 1.23% | viability, T/C [30] 0.95% | viability, T/C [31] 1.48% | viability, T/C [32] 2.1% | viability, T/C [33] 0.71% | viability, T/C [34] 1.8% | viability, T/C [35] 0.73% | viability, T/C [36] 0.29%
179 nM: IC50 (second compound 0.1 µM)
712 nM: IC50 (second compound 0.0316 µM)
< 31.6 nM: IC50 (second compound 0.316 µM) | IC50 (second compound 1 µM) | IC50 (second compound 3.16 µM) | IC50 (second compound 10 µM)
